Results reported in PubChem BioAssay (NCI).
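The compound was tested at five concentrations on cells cultured in 96-well plates, with a 48-hour exposure period. The concentration for full growth arrest is given as TGI.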

Key:
Assay in all cases: DTP human tumour cell line panel, 48 h
BT-549 breast = tested on: BT-549 breast
HOP-62 NSCLC = tested on: HOP-62 NSCLC
A498 renal = tested on: A498 renal
HCT-15 colon = tested on: HCT-15 colon
MDA-MB-231 breast = tested on: MDA-MB-231 breast
RPMI-8226 leukemia = tested on: RPMI-8226 leukemia
NCI-H23 lung = tested on: NCI-H23 lung
COLO 205 colon = tested on: COLO 205 colon
NCI/ADR-RES ovarian = tested on: NCI/ADR-RES ovarian
HS 578T breast = tested on: HS 578T breast
PC-3 prostate = tested on: PC-3 prostate
HOP-92 NSCLC = tested on: HOP-92 NSCLC

Row | Compound | TGI (BT-549 breast) | TGI (HOP-62 NSCLC) | TGI (A498 renal) | TGI (HCT-15 colon) | TGI (MDA-MB-231 breast) | TGI (RPMI-8226 leukemia) | TGI (NCI-H23 lung) | TGI (COLO 205 colon) | TGI (NCI/ADR-RES ovarian) | TGI (HS 578T breast) | TGI (PC-3 prostate) | TGI (HOP-92 NSCLC)
1 | CCOC(=O)Cc1nc2nn(Cc3ccccc3)cc2c(=O)[nH]1 | > 100 µM | > 100 µM | > 100 µM | > 100 µM | > 100 µM | > 100 µM | > 100 µM | > 100 µM | > 100 µM | – | – | –
2 | CCOP(=O)(CCC(O)CNc1nc(N)nc(Cl)c1N=Nc1ccc(Cl)cc1)OCC (configuration not stated) | – | 40.2 µM | 27.7 µM | 19.6 µM | > 100 µM | 42.7 µM | 37.4 µM | 27.4 µM | 46.9 µM | 38.2 µM | 29.7 µM | 3.8 µM
3 | CCOC(=O)C1=C(C)C2C3C(=O)NC(=O)C3C1(C)C1C(=O)NC(=O)C21 (configuration not stated) | – | > 100 µM | > 100 µM | > 100 µM | – | > 100 µM | > 100 µM | > 100 µM | – | – | – | > 100 µM
4 | Clc1ccc2c(Cl)ncnc2c1I | – | > 100 µM | – | > 100 µM | – | > 100 µM | > 100 µM | > 100 µM | – | – | – | –
5 | COC(=O)c1cccc(C)c1C1CN=NC12Cc1c(ccc(C)c1C)C2=O (configuration not stated) | – | > 100 µM | > 100 µM | > 100 µM | > 100 µM | 96.2 µM | > 100 µM | – | > 100 µM | > 100 µM | – | > 100 µM
6 | CCOC(=O)C(NC(=O)NCc1ccc(F)cc1)C(F)(F)F (configuration not stated) | > 100 µM | – | > 100 µM | > 100 µM | – | > 100 µM | > 100 µM | > 100 µM | > 100 µM | > 100 µM | > 100 µM | –
7 | NC(=S)Nc1nnc(-c2ccc(-c3nnc(NC(N)=S)o3)cc2)o1 | – | > 100 µM | > 100 µM | > 100 µM | – | > 100 µM | > 100 µM | > 100 µM | – | – | – | > 100 µM
8 | CC(=O)/C(=C/N1C(=O)CC(=O)NC1=S)C(=O)Nc1ccccc1C | > 100 µM | 64.2 µM | > 100 µM | > 100 µM | > 100 µM | – | > 100 µM | > 100 µM | > 100 µM | – | – | > 100 µM
9 | CC(C)(C)c1cc(N=NC(=S)NCc2ccccc2)cc(C(C)(C)C)c1O | – | > 100 µM | > 100 µM | > 100 µM | – | > 100 µM | > 100 µM | > 100 µM | – | – | – | –
10 | COC(=O)C1=C(C(=O)OC)C(C(=O)c2ccccc2)N2N=C(c3ccc(Cl)cc3)C=CC12 (configuration not stated) | 8.55 µM | > 100 µM | > 100 µM | > 100 µM | > 100 µM | 80.1 µM | > 100 µM | > 100 µM | > 100 µM | – | > 100 µM | > 100 µM
11 | COc1cc(/C=C2\CCC(C)c3c2nc(N)c(C#N)c3-c2cc(OC)c(OC)c(OC)c2)cc(OC)c1OC (configuration not stated) | – | > 100 µM | > 100 µM | > 100 µM | > 100 µM | > 100 µM | – | – | – | 75.1 µM | > 100 µM | > 100 µM
12 | CC1C(c2ccccc2)=CCON1c1ccccc1 (configuration not stated) | – | > 100 µM | – | > 100 µM | – | > 100 µM | > 100 µM | > 100 µM | – | – | – | –
13 | BrC12C3C4C5C(C(C43)C13OCCO3)C52 (configuration not stated) | – | > 100 µM | > 100 µM | – | – | > 100 µM | > 100 µM | > 100 µM | – | – | – | > 100 µM
14 | Cc1cccc(NC(=O)CSc2nnc(Cc3ccccc3)o2)c1 | – | > 100 µM | > 100 µM | > 100 µM | – | – | > 100 µM | > 100 µM | – | – | – | –
15 | NC(=O)CC1(O)C=CC(=O)C=C1 | > 100 µM | > 100 µM | > 100 µM | > 100 µM | > 100 µM | > 100 µM | > 100 µM | > 100 µM | > 100 µM | – | > 100 µM | > 100 µM
16 | CC(C(O)c1ccccc1)N(C)/N=N/c1nc2c([nH]1)c(=O)n(C)c(=O)n2C (configuration not stated) | > 100 µM | > 100 µM | – | > 100 µM | > 100 µM | > 100 µM | > 100 µM | > 100 µM | > 100 µM | > 100 µM | > 100 µM | –
17 | Nc1ccccc1C(=O)NNC(=O)c1ccccc1N | – | > 100 µM | > 100 µM | > 100 µM | > 100 µM | > 100 µM | > 100 µM | > 100 µM | > 100 µM | – | > 100 µM | > 100 µM
18 | N=c1oc2cc(O)c(O)cc2cc1C(N)=O | – | > 100 µM | > 100 µM | > 100 µM | – | > 100 µM | > 100 µM | > 100 µM | – | – | – | > 100 µM
19 | O=C(CSc1nnc(-c2ccc(N=Cc3ccc(Cl)cc3)cc2)o1)Nc1ccccc1 | – | > 100 µM | – | > 100 µM | – | > 100 µM | > 100 µM | > 100 µM | – | – | – | –
20 | CN=C1Nc2ccccc2C(=S)N2CSC[C@@H]12 | – | > 100 µM | > 100 µM | > 100 µM | > 100 µM | > 100 µM | > 100 µM | > 100 µM | > 100 µM | – | > 100 µM | > 100 µM
21 | c1ccc2c(NCCCCCCCCNc3cccc4ccccc34)cccc2c1 | – | > 100 µM | > 100 µM | 84.7 µM | – | > 10 µM | 65 µM | 35.4 µM | – | – | – | 35.7 µM
22 | C=CCN1C(=O)N/C(=C\c2ccc(Cl)cc2)C1=O | > 100 µM | > 100 µM | > 100 µM | > 100 µM | > 100 µM | > 100 µM | > 100 µM | > 100 µM | > 100 µM | > 100 µM | – | > 100 µM
23 | COc1ccccc1NC(=S)Nc1cccc(C)n1 | > 100 µM | > 100 µM | > 100 µM | > 100 µM | – | > 100 µM | – | > 100 µM | > 100 µM | > 100 µM | > 100 µM | –
